From ChEMBL document CHEMBL5257059, “Pyridine-Based 1,2,4-Triazolo-Tethered Indole Conjugates Potentially Affecting TNKS and PI3K in Colorectal Cancer” (ACS Med Chem Lett, 2023)

How the values were obtained:
Type in all cases: functional, cell-based
A 172 = experiment: Antiproliferative activity against human A-172 cells assessed as inhibition of cell growth incubated for 24 hrs by MTT assay; conditions: A 172, 24 h
HT-29 = experiment: Antiproliferative activity against human HT-29 cells assessed as inhibition of cell growth incubated for 24 hrs by MTT assay; conditions: HT-29, 24 h
Caco-2 = experiment: Antiproliferative activity against human Caco-2 cells assessed as inhibition of cell growth incubated for 24 hrs by MTT assay; conditions: Caco-2, 24 h
[1] = Antiproliferative activity against human Tera-1 cells assessed as inhibition of cell growth incubated for 24 hrs by MTT assay; conditions: Tera-1, 24 h
DLD-1 = experiment: Antiproliferative activity against human DLD-1 cells assessed as inhibition of cell growth incubated for 24 hrs by MTT assay; conditions: DLD-1, 24 h
A549 = experiment: Antiproliferative activity against human A549 cells assessed as inhibition of cell growth incubated for 24 hrs by MTT assay; conditions: A549, 24 h

CCCCn1c(SCCc2c[nH]c3ccccc23)nnc1-c1ccncc1
IC50 (A 172): > 30 µM
IC50 (HT-29): > 30 µM
IC50 (Caco-2): > 30 µM
IC50 [1]: > 30 µM
IC50 (DLD-1): > 30 µM
IC50 (A549): > 30 µM

Cc1cccc(C)c1-n1c(SCCc2c[nH]c3ccccc23)nnc1-c1ccncc1
IC50 (A 172): > 30 µM
IC50 (HT-29): > 30 µM
IC50 (Caco-2): > 30 µM
IC50 [1]: > 30 µM
IC50 (DLD-1): > 30 µM
IC50 (A549): > 30 µM

O=[N+]([O-])c1ccc(-n2c(SCCc3c[nH]c4ccccc34)nnc2-c2ccncc2)cc1
IC50 (A 172): 16.9 µM
IC50 (HT-29): > 30 µM
IC50 (Caco-2): > 30 µM
IC50 [1]: > 30 µM
IC50 (DLD-1): > 30 µM
IC50 (A549): > 30 µM

Clc1cccc(-n2c(SCCc3c[nH]c4ccccc34)nnc2-c2ccncc2)c1
IC50 (A 172): > 30 µM
IC50 (HT-29): 7.3 µM
IC50 (Caco-2): 13.5 µM
IC50 [1]: > 30 µM
IC50 (DLD-1): 11 µM
IC50 (A549): > 30 µM

Cc1ccc(-n2c(SCCc3c[nH]c4ccccc34)nnc2-c2ccncc2)cc1
IC50 (A 172): 20.3 µM
IC50 (HT-29): > 30 µM
IC50 (Caco-2): 17.8 µM
IC50 [1]: > 30 µM
IC50 (DLD-1): 16.5 µM
IC50 (A549): 13.5 µM

Fc1ccc(-n2c(SCCc3c[nH]c4ccccc34)nnc2-c2ccncc2)cc1
IC50 (A 172): > 30 µM
IC50 (HT-29): 5.8 µM
IC50 (Caco-2): 10.3 µM
IC50 [1]: > 30 µM
IC50 (DLD-1): 10.6 µM
IC50 (A549): 8.09 µM

C=CCn1c(SCCc2c[nH]c3ccccc23)nnc1-c1ccncc1
IC50 (A 172): > 30 µM
IC50 (HT-29): > 30 µM
IC50 (Caco-2): > 30 µM
IC50 [1]: > 30 µM
IC50 (DLD-1): > 30 µM
IC50 (A549): > 30 µM

Brc1cccc(-n2c(SCCc3c[nH]c4ccccc34)nnc2-c2ccncc2)c1
IC50 (A 172): 14.7 µM
IC50 (HT-29): 12.2 µM
IC50 (Caco-2): 10.5 µM
IC50 [1]: 24.6 µM
IC50 (DLD-1): 15.3 µM
IC50 (A549): 14.5 µM

c1ccc(Cn2c(SCCc3c[nH]c4ccccc34)nnc2-c2ccncc2)cc1
IC50 (A 172): 8.1 µM
IC50 (HT-29): > 30 µM
IC50 (Caco-2): > 30 µM
IC50 [1]: 10.7 µM
IC50 (DLD-1): 25.8 µM
IC50 (A549): 13.9 µM

Clc1ccc(-n2c(SCCc3c[nH]c4ccccc34)nnc2-c2ccncc2)cc1
IC50 (A 172): 23.3 µM
IC50 (HT-29): > 30 µM
IC50 (Caco-2): 25 µM
IC50 [1]: > 30 µM
IC50 (DLD-1): 21.8 µM
IC50 (A549): 18.7 µM

O=c1[nH]cc(F)c(=O)[nH]1 [FLUOROURACIL]
IC50 (HT-29): 5.31 µM

Cc1ccccc1-n1c(SCCc2c[nH]c3ccccc23)nnc1-c1ccncc1
IC50 (A 172): > 30 µM
IC50 (HT-29): > 30 µM
IC50 (Caco-2): > 30 µM
IC50 [1]: > 30 µM
IC50 (DLD-1): > 30 µM
IC50 (A549): > 30 µM

c1ccc(-n2c(SCCc3c[nH]c4ccccc34)nnc2-c2ccncc2)cc1
IC50 (A 172): 26.8 µM
IC50 (HT-29): > 30 µM
IC50 (Caco-2): > 30 µM
IC50 [1]: > 30 µM
IC50 (DLD-1): 19 µM
IC50 (A549): > 30 µM

CCCn1c(SCCc2c[nH]c3ccccc23)nnc1-c1ccncc1
IC50 (A 172): > 30 µM
IC50 (HT-29): > 30 µM
IC50 (Caco-2): > 30 µM
IC50 [1]: > 30 µM
IC50 (DLD-1): > 30 µM
IC50 (A549): > 30 µM

Brc1ccccc1-n1c(SCCc2c[nH]c3ccccc23)nnc1-c1ccncc1
IC50 (A 172): > 30 µM
IC50 (HT-29): > 30 µM
IC50 (Caco-2): > 30 µM
IC50 [1]: > 30 µM
IC50 (DLD-1): > 30 µM
IC50 (A549): 4 µM
